Experimental data taken from PMC6748952, “Identification, Functional Characterization, and Pharmacological Analysis of Two Sulfakinin Receptors in the Medically-Important Insect Rhodnius prolixus” (Scientific Reports, 2019).
pEC50: −log10 of the molar value. “Also recorded” adds a separate entry of the source. Where no end group is shown, it is not given here.

How the values were obtained:
Rhopr-SKR-1 [1] = experiment: Second messenger pathway assay (PLC inhibitor U73122 or EGTA), Rhopr-SKR-1 in HEK293/CNG cells; format: cell-based, Rhodnius prolixus; conditions: for luminescence response of control agents: cells expressing Rhopr-SKR-1, confirms functional CNG channels (Fig. S4); for pEC50: 3 replicates, read-out: EC50, luminescence response; for luminescence response: with 10 μM U73122 (10 minutes incubation)
Experimental: (§1) To test whether cAMP and/or Ca^2+ are the second messengers for Rhopr-SKR-1 and Rhopr-SKR-2, HEK293/CNG cells were transfected with each receptor, as previously mentioned, then split into cells that were suspended in calcium-free DMEM with the extracellular calcium chelator EGTA (10 μM) or cells treated with the PLC inhibitor U73122 (10 μM) (Sigma Aldrich, Oakville, ON, Canada). […] HEK293/CNG cells with receptors that work via the Ca^2+ pathway would be unable to evoke luminescence in the presence of U73122. The modified CNG channel in HEK293/CNG causes extracellular Ca^2+ to flow into the cell upon an increase in cytoplasmic cAMP levels. Receptors that solely work through the cAMP pathway would be unable to produce a response in calcium-free media with EGTA. Moreover, receptors that work via both Ca^2+ and cAMP would elicit a response in the presence of either U73122 or EGTA in calcium-free media.
(§2) HEK293/CNG cells were used via the same protocol as previously stated. Luminescence was measured in 5-second intervals for a total of 30 seconds. In the first set of experiments, the transfected cells were incubated in 10 μM of U73122 for 10 minutes prior to measuring luminescence in response to the addition of sulfated Rhopr-SK-1 or Rhopr-SK-2. To confirm the viability of the utilized cells, media in 1.5% Triton X-100 served as a positive control. In the second set of experiments, cells were suspended in calcium-free DMEM (Thermo Fisher Scientific, Waltham, MA, USA) with 10 μM of the extracellular calcium chelator EGTA. Here, luminescence was measured in response to sulfated Rhopr-SK-1 or Rhopr-SK-2 in calcium-free DMEM in the presence of EGTA. A batch of cells that was also pre-incubated in calcium-free DMEM with EGTA were then washed, incubated in regular DMEM, and then tested in response to sulfated Rhopr-SK-1 and […]. Forskolin, which is a stimulator of adenylate cyclase, and the cAMP analog dibutyryl cAMP (dbcAMP) were utilized as controls to confirm the expression of functional CNG channels in the HEK293/CNG cells. ATP served as a positive control. GraphPad Prism version 8.00 (https://www.graphpad.com) was used to analyze the bioluminescence results.

Rhopr-SKR-2 [2] = experiment: Second messenger pathway assay (PLC inhibitor U73122 or EGTA), Rhopr-SKR-2 in HEK293/CNG cells; format: cell-based, Rhodnius prolixus; conditions: for pEC50: 3 replicates, read-out: EC50, luminescence response; for luminescence response: with 10 μM U73122 (10 minutes incubation)
Experimental: as §1, §2

PLC pathway = conditions: HEK293/CNG cell line; cited from earlier work
Experimental: To test whether cAMP and/or Ca^2+ are the second messengers for Rhopr-SKR-1 and Rhopr-SKR-2, HEK293/CNG cells were transfected with each receptor, as previously mentioned, then split into cells that were suspended in calcium-free DMEM with the extracellular calcium chelator EGTA (10 μM) or cells treated with the PLC inhibitor U73122 (10 μM) (Sigma Aldrich, Oakville, ON, Canada). […] HEK293/CNG cells with receptors that work via the Ca^2+ pathway would be unable to evoke luminescence in the pre ...

Rhopr-SKR-2 [3] = experiment: Functional receptor assay (aequorin bioluminescence), Rhopr-SKR-2 transiently expressed in HEK293/CNG cells; format: cell-based, Rhodnius prolixus; conditions: for luminescence response / activation (in words) / pEC50: HEK293/CNG, first 5-second interval, 3 replicates; for pEC50: aequorin luminescence, coelenterazine h 5 μM, read-out: EC50, luminescence response
Experimental: (§3) An aequorin luminescence assay was utilized in order to measure Ca^2+ signaling in HEK293/CNG cells stably expressing a modified cyclic nucleotide-gated (CNG) channel. The cells were grown in Dulbecco’s Modified Eagle Medium Nutrient Mixture F12-Ham (DMEM/F-12) (Thermo Fisher Scientific, Waltham, MA, USA), with 1% penicillin/streptomycin, 10% fetal bovine serum (FBS), and 100 μg/mL G418 (Geneticin). The HEK293/CNG cells were consistently grown in vented T75 flasks and inclubated at 37 °C in 5% CO2. After reaching approximately 95% confluency, the mammalian cells were transiently co-transfected with the pIRES2-ZsGreen1 expression vector (containing Rhopr-SKR-1 or Rhopr-SKR-2) and the cytoplasmic luminescent reporter aequorin via X-tremeGENE^TM HP DNA Transfection Reagent (Roche Applied Science, Penzberg, Germany). Transfections were performed at a 2:1 ratio for the transfection reagent to the expression vectors. Cells transiently transfected with empty pIRES2-ZsGreen1 expression vectors served as a negative control. The cells were then incubated at 37 °C in 5% CO2 for 72 hours prior to performing the bioluminescence assay.
(§4) The bioluminescence assay was performed as previously described. At 72 hours post-transfection, the HEK293/CNG cells were harvested from the T75 flasks using a PBS with ethylenediaminetetraacetic acid (EDTA) solution then suspended in a bovine serum albumin (BSA) media (DMEM/F-12 with 1% penicillin/streptomycin and 1% BSA). Prior to the functional assay, the cells were incubated in coelenterazine h (Promega, Madison, WI, USA) to a 5 μM final concentration, and then incubated for 4 hours whilst stirring in the dark. The cells were then diluted 8-fold via BSA media. Rhopr-SK-1 and Rhopr-SK-2 (as well as nonsulfated Rhopr-SK-1) were prepared in BSA media then plated in duplicates on 96-well plates, with 50 μL of the cells then automatically injected into each of these wells via a Perkin Elmer Wallac 1420 Victor2 plate reader (Perkin Elmer, San Diego, CA, USA). The reader was used to measure luminescence response in consecutive five-second intervals (15 seconds in total). An extended Rhopr-FMRFamide (GNDNFMRFamide), tachykinin (Rhopr-TK-2), and Rhopr-Kinin-2 were used as controls to test for specificity. ATP was used as a positive control. HEK293/CNG cells transfected with empty pIRES2-ZsGreen1 vectors served as negative controls.

Rhopr-SKR-1 [4] = experiment: Functional receptor assay (aequorin bioluminescence), Rhopr-SKR-1 transiently expressed in HEK293/CNG cells; format: cell-based, Rhodnius prolixus; conditions: for luminescence response / activation (in words) / pEC50: HEK293/CNG, first 5-second interval, 3 replicates; for pEC50: aequorin luminescence, coelenterazine h 5 μM, read-out: EC50, luminescence response
Experimental: as §3, §4

HEK293/CNG cells = experiment: Negative control: HEK293/CNG cells transfected with empty pIRES2-ZsGreen1 plasmids; format: cell-based, human; conditions: empty pIRES2-ZsGreen1 (not shown)
Experimental: as §3, with “Cells transiently transfected with empty pIRES2-ZsGreen1 expression vectors served as a negative control. The cells were then incubated at 37 °C in 5% CO2 for 72 hours prior to performing the bioluminescence assay.” left out
The bioluminescence assay was performed as previously described. […] Rhopr-SK-1 and Rhopr-SK-2 (as well as nonsulfated Rhopr-SK-1) were prepared in BSA media then plated in duplicates on 96-well plates, with 50 μL of the cells then automatically injected into each of these wells via a Perkin Elmer Wallac 1420 Victor2 plate reader (Perkin Elmer, San Diego, CA, USA). The reader was used to measure luminescence response in consecutive five-second intervals (15 seconds in total). […]

R. prolixus = conditions: peptide injection; cited from earlier work
From the text: Silencing of SKs via RNAi has been linked to stimulation in the intake of food in G. bimaculatus[28] and T. castaneum. Additionally, RNAi-induced silencing of each of the transcripts for the two SKRs in T. castaneum led an increase of food intake by approximately 20% for SKR1[25] and 50% for SKR2[29]. […] In the present study, the transcript coding for Rhopr-SK-1 and Rhopr-SK-2 as well as the ...

[5] = Rhopr-SKR-1, absence of EGTA, media containing calcium
[6] = Rhopr-SKR-1, absence of U73122, media containing calcium
[7] = Rhopr-SKR-1, presence of EGTA (10 μM), calcium-free DMEM
[8] = absence of EGTA, media containing calcium
[9] = absence of U73122, media containing calcium
[10] = presence of EGTA (10 μM), calcium-free DMEM

In the case of `Nc1ncnc2c1ncn2[C@@H]1O[C@H](COP(=O)(O)OP(=O)(O)OP(=O)(O)O)[C@@H](O)[C@H]1O` [ATP, reference compound], the “bioluminescent response of ATP, positive control” value (Rhopr-SKR-1 [1]; Rhopr-SKR-1, all conditions (not shown)) was “elicited the expected positive bioluminescent response” and the “bioluminescent response of ATP, positive control” value (Rhopr-SKR-2 [2]; all conditions (not shown)) was “elicited the expected positive bioluminescent response”.

In the case of `O=C(O)CN(CCOCCOCCN(CC(=O)O)CC(=O)O)CC(=O)O` [EGTA, ethylene glycol-bis(β-aminoethyl ether)-N,N,N′,N′-tetraacetic acid, reference compound], the “effect of EGTA on luminescence induced by Rhopr-SK-1 and Rhopr-SK-2” value (Rhopr-SKR-1 [1]; Rhopr-SKR-1, calcium-free media containing EGTA (10 μM)) was “does not abolish the luminescence induced by Rhopr-SK-1 and Rhopr-SK-2” and the “effect of EGTA on luminescence induced by Rhopr-SK-1 and Rhopr-SK-2” value (Rhopr-SKR-2 [2]; calcium-free media containing EGTA (10 μM)) was “does not abolish the luminescence induced by Rhopr-SK-1 and Rhopr-SK-2”.

For `COc1ccc2c(c1)CC[C@@H]1[C@@H]2CC[C@]2(C)[C@@H](NCCCCCCN3C(=O)C=CC3=O)CC[C@@H]12` [U73122, reference compound], the “effect of U73122 on luminescence response to Rhopr-SK-1 and Rhopr-SK-2” value (Rhopr-SKR-1 [1]; Rhopr-SKR-1, 10 μM) is listed as “abolished the luminescence response to Rhopr-SK-1 and Rhopr-SK-2”, the “inhibition of PLC pathway” value (PLC pathway) is listed as “successfully inhibit the PLC pathway” and the “effect of U73122 on luminescence response to Rhopr-SK-1 and Rhopr-SK-2” value (Rhopr-SKR-2 [2]; 10 μM) is listed as “abolished the luminescence response to Rhopr-SK-1 and Rhopr-SK-2”.

For `CCCC(=O)Nc1ncnc2c1ncn2[C@@H]1O[C@@H]2COP(=O)(O)O[C@H]2[C@H]1OC(=O)CCC` [dibutyryl-cAMP, reference compound], the “luminescence response of control agents” value (Rhopr-SKR-1 [1]) was “elicited luminescence responses”.

In the case of `C=C[C@@]1(C)CC(=O)[C@]2(O)[C@@]3(C)[C@@H](O)CCC(C)(C)[C@@H]3[C@H](O)[C@H](OC(C)=O)[C@@]2(C)O1` [forskolin, reference compound], the “luminescence response of control agents” value (Rhopr-SKR-1 [1]) was “elicited luminescence responses”.

For “AKFSSWG-NH2 [Rhopr-Kinin-2, R. prolixus kinin, control for specificity, reference compound]”, the “luminescence response / activation (in words)” value (Rhopr-SKR-2 [3]) was “little to no response” and the “luminescence response / activation (in words)” value (Rhopr-SKR-1 [4]) was “little to no response”.

In the case of “APSTMGFQGVR-NH2 [Rhopr-TK-2, R. prolixus tachykinin, control for specificity, reference compound]”, the “luminescence response / activation (in words)” value (Rhopr-SKR-2 [3]) was “little to no response” and the “luminescence response / activation (in words)” value (Rhopr-SKR-1 [4]) was “little to no response”.

For “GGSDEKFDDY(SO3H)GYMRFamide [Rhopr-SK-2, native R. prolixus sulfakinin 2, custom synthesized]”, the pEC50 (Rhopr-SKR-1 [1]; [5]) was 8.16, the pEC50 (Rhopr-SKR-1 [1]; [6]) was 7.88 and the pEC50 (Rhopr-SKR-1 [1]; [7]) was 7.52. The luminescence response (Rhopr-SKR-1 [1]; Rhopr-SKR-1) was “unable to elicit a response”, the “luminescence of Rhopr-SK-2 vs Rhopr-SK-1” value (Rhopr-SKR-2 [3]; 1 × 10^−6 M, one way ANOVA, Tukey, ***P < 0.001, 3 replicates) was “lower” and the pEC50 (Rhopr-SKR-2 [3]) was 10.00. The “luminescence response / activation (in words)” value (Rhopr-SKR-2 [3]) was “activated by sulfated Rhopr-SK-1 and sulfated Rhopr-SK-2 in a dose-dependent manner; also recorded: partial, though potent ligand”, the pEC50 (Rhopr-SKR-1 [4]) was 8.06 and the “luminescence response / activation (in words)” value (Rhopr-SKR-1 [4]) was “activated by sulfated Rhopr-SK-1 and sulfated Rhopr-SK-2 in a dose-dependent manner; also recorded: partial, though potent ligand”. For the same molecule, the “luminescence in empty-vector cells” value (HEK293/CNG cells) was “no luminescence”, the pEC50 (Rhopr-SKR-2 [2]; [8]) was 9.87 and the pEC50 (Rhopr-SKR-2 [2]; [9]) was 9.92. For the same molecule, the pEC50 (Rhopr-SKR-2 [2]; [10]) was 9.50 and the luminescence response (Rhopr-SKR-2 [2]) was “unable to elicit a response”.

In the case of “GNDNFMRF-NH2 [extended Rhopr-FMRFamide, control for specificity, reference compound]”, the “luminescence response / activation (in words)” value (Rhopr-SKR-2 [3]) was “little to no response” and the “luminescence response / activation (in words)” value (Rhopr-SKR-1 [4]) was “little to no response”.

For “pQFNEY(SO3H)GHMRFamide [Rhopr-SK-1, native R. prolixus sulfakinin 1, custom synthesized]”, the “size of blood meal” value (R. prolixus) is listed as “took smaller blood meals”, the pEC50 (Rhopr-SKR-1 [1]; [5]) is listed as 9.53 and the pEC50 (Rhopr-SKR-1 [1]; [6]) is listed as 9.50. The pEC50 (Rhopr-SKR-1 [1]; [7]) was 9.36, the luminescence response (Rhopr-SKR-1 [1]; Rhopr-SKR-1) was “unable to elicit a response” and the “potency of Rhopr-SK-1 relative to Rhopr-SK-2” value (Rhopr-SKR-2 [3]) was “similar”. For the same molecule, the pEC50 (Rhopr-SKR-2 [3]) was 9.84, the “luminescence response / activation (in words)” value (Rhopr-SKR-2 [3]) was “activated by sulfated Rhopr-SK-1 and sulfated Rhopr-SK-2 in a dose-dependent manner; also recorded: full, and potent ligand” and the “potency of Rhopr-SK-1 relative to Rhopr-SK-2” value (Rhopr-SKR-1 [4]) was “one order of magnitude more potent than Rhopr-SK-2”. The pEC50 (Rhopr-SKR-1 [4]) was 9.27, the “luminescence response / activation (in words)” value (Rhopr-SKR-1 [4]) was “activated by sulfated Rhopr-SK-1 and sulfated Rhopr-SK-2 in a dose-dependent manner; also recorded: full, and potent ligand” and the “luminescence in empty-vector cells” value (HEK293/CNG cells) was “no luminescence”. For the same molecule, the pEC50 (Rhopr-SKR-2 [2]; [8]) was 9.67, the pEC50 (Rhopr-SKR-2 [2]; [9]) was 9.99 and the pEC50 (Rhopr-SKR-2 [2]; [10]) was 9.46. The luminescence response (Rhopr-SKR-2 [2]) was “unable to elicit a response”.
